Experimental data taken from patent publication US7888383B2, “Organic compounds” (Novartis AG, priority 2005, dated 2011).

How the values were obtained:
[1] = target: T1, human CRTh2 (Homo sapiens, UniProt Q9Y5Y4); test: CRTh2 [3H]-PGD2 binding assay (filtration protocol; called SPA binding assay); settings: competition with [3H]-PGD2 (2.5 nM), CHO.K1-CRTh2 membranes
T1 construct: expressed in transfected cells; host or cells: CHO.K1 (Chinese Hamster Ovary) cells expressing human CRTh2; membrane preparation
T1 sequence (Q9Y5Y4 1-395): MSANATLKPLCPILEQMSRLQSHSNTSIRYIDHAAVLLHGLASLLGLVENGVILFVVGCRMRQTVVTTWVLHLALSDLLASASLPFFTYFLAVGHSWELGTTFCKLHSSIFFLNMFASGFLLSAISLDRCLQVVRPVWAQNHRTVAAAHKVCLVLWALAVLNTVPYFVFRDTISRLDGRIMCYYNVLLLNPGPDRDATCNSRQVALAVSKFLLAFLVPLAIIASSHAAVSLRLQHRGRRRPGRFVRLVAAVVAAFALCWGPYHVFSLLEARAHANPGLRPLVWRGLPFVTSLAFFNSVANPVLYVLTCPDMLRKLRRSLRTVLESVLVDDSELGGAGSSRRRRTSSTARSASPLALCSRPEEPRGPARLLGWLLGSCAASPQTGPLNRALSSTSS
Experimental: Filtration Binding Assay Protocol
The binding of CRTh2 modulators is determined using membranes prepared from human CRTh2-expressing Chinese Hamster Ovary cells (CHO.K1-CRTh2). To produce cell membranes CHO.K1-CRTh2 cells cultured in roller bottles are harvested using cell dissociation buffer (Invitrogen). The cells are pelleted by centrifugation (167 g, 5 min). The cell pellet is incubated in hypotonic buffer (15 mM Tris-OH, 2 mM MgCl2, 0.3 mM EDTA, 1 mM EGTA, 1× Complete™ tablet) at 4° C. for 30 min. At 4° C. cells are homogenized using a Polytron® (IKA Ultra Turrax T25) for 5 bursts of 1 second. The homogenate is centrifuged (Beckman Optima™ TL Ultracentrifuge, 48000 g, 30 min at 4° C.). The supernatant is discarded and the membrane pellet resuspended in homogenisation buffer (75 mM Tris-OH, 12.5 mM MgCl2, 0.3 mM EDTA, 1 mM EGTA, 250 mM Sucrose, 1× Complete™ tablet. Membrane preparations are aliquoted and stored at […]. The protein content is estimated using Bradford Protein Assay Dye (Bio Rad).
The binding of [^3H]-PGD2 (157 Ci/mmol) to CHO.K1-CRTh2 membranes is determined in the absence (total binding) and presence (non-specific binding) of unlabelled PGD2 (1 μM). Subtraction of the cpm (counts per minute) of [^3H]-PGD2 binding in presence of excess unlabelled PGD2 from that observed in the absence of excess unlabelled PGD2 is defined as specific binding. Active CRTh2 modulators are able to compete with [^3H]-PGD2 for binding to the CRTh2 receptor and are identified in a decrease in the number of cpm bound. […]
The plates are incubated at room temperature on a shaker for 1 hour, and then harvested (Tomtec Harvester 9600) onto GF/C filter plates using wash buffer (10 mM HEPES-KOH, pH 7.4). […] Plates are then counted using a Packard Top Count instrument, Plates are then read on the Packard Topcount with the 3H Scintillation program (1 min per well).
Ki (dissocation constant for the inhibition) values for the CRTh2 modulators are reported. Ki values are determined using Sigma Plot™ software, using the Cheng-Prussoff equation. […]

[2] = target: T2, CRTh2 receptor in CHO.K1-CRTh2 cells (Homo sapiens, UniProt Q9Y5Y4); test: CRTH2 cAMP functional assay; assay type: cell-based; settings: inhibition of PGD2-mediated attenuation of forskolin-induced cAMP accumulation in CHO.K1-CRTh2 cells
T2 construct: expressed in transfected cells; host or cells: CHO.K1-CRTh2 cells (whole cells)
T2 sequence (Q9Y5Y4 1-395): T1 sequence (Q9Y5Y4 1-395)
Experimental: Ki (dissocation constant for the inhibition) values for the CRTh2 modulators are reported. Ki values are determined using Sigma Plot™ software, using the Cheng-Prussoff equation. Ki=IC50/1+[S]/Kd where S is the concentration of radioligand and Kd is the dissociation constant. CRTH2 cAMP Functional Assay Protocol
This assay is conducted in CHO.K1-CRTh2 cells. cAMP is generated in the cell by stimulating cells with 5 μM forskolin, an adenylate cyclase activator. PGD2 is added to activate the CRTh2 receptor which results in the attenuation of the forskolin-induced cAMP accumulation. Potential CRTh2 antagonists are tested for their ability to inhibit the PGD2-mediated attenuation of the forskolin-induced cAMP accumulation in CHO.K1-CRTh2 cells.
For each concentration value on the dose-response curve, test compounds are prepared in assay stimulation buffer (HBSS, 5 mM HEPES, 10 μM IBMX±0.1% human serum albumin) containing DMSO (3% vol/vol) and 5 μL/well is added to an assay plate (384 well white optiplate).
CHO.K1-CRTh2 cultured in tissue culture flasks are washed with PBS and harvested with dissociation buffer. Cells are washed with PBS and resuspended in stimulation buffer to a concentration of 0.4×10^6/mL and added to the assay plate (10 μL/well).
The assay plate is incubated at room temperature on a shaker for 15 minutes.
A mix of agonist (10 nM Prostaglandin D2) and 5 μM forskolin is prepared in assay stimulation buffer and added to the assay plate (5 μL/well).
In addition, a cAMP standard is serially diluted in assay stimulation buffer and added to separate empty wells on the assay plate (20 μL/well). The cAMP standard allows for the quantification of cAMP generated in CHO.K1-CRTH2 cells.
The assay plate is incubated at room temperature on a shaker for 60 minutes. […]
The assay plate is sealed with Topseal-S™ and incubated in the dark at room temperature on a shaker for 45 minutes. The plate is then counted using a Packard Fusion™ instrument. […]

SMILES	Ki [1]	IC50 [2]
Cc1c(CC(=O)O)c2cc(F)ccc2n1Cc1ccc(S(C)(=O)=O)cc1C(F)(F)F [Example 2, [5-fluoro-(4-methanesulfonyl-2-trifluoromethyl-benzyl)-2-methyl-1H-indol-3-yl]-acetic acid]	8 nM	73 nM
Cc1c(CC(=O)O)c2cc(F)ccc2n1Cc1ccc(S(=O)(=O)N(C)C2CCCCC2)cc1 [Example 4, {1-[4-(Cyclohexyl-methyl-sulfamoyl)-benzyl]-5-fluoro-2-methyl-1H-indol-3-yl}-acetic acid]	52 nM	33 nM
Cc1c(CC(=O)O)c2cc(F)ccc2n1Cc1ccc(S(=O)(=O)N2CCCC2)cc1 [Example 5, {5-Fluoro-2-methyl-1-[4-(pyrrolidine-1-sulfonyl)-benzyl]-1H-indol-3-yl}-acetic acid]	36 nM	99 nM
